Patent US9155792B2, “RecA inhibitors with antibiotic activity, compositions and methods of use” (Trustees of Boston University, priority 2006, dated 2015)

Assays:
E. coli RecA protein = target: T1, E. coli RecA protein (Escherichia coli, UniProt P0A7G6); assay: RecA ATPase luciferase assay; type: biochemical; conditions: compounds of FIGS. 2A and 2B
T1 construct: purchased New England Biolabs
Protocol: RecA is a DNA-dependent ATPase (i.e., it catalyzes the reaction adenosine triphosphate [ATP]→adenosine diphosphate [ADP]). An assay was developed for RecA ATPase activity based on detection of the amount of ATP remaining in a reaction mixture following incubation of RecA protein, DNA, and ATP. In the assay, E. coli RecA protein is incubated in reaction buffer with DNA, ATP, and any test compound or compounds for a measured amount of time. The quantity of ATP remaining after the RecA reaction is quantitated using a subsequent luciferase assay. The amount of ATP remaining can be compared to controls containing either a known inhibitor (full inhibition control) or no test compound (full activity control).
Kinase glo, Adenosine triphosphate, Adenosine 5′-O-(3-thiotriphosphate) plus and 384 well plates were obtained from Fisher, M13mp18 Single-stranded DNA, RecA protein, and T4 polynucleotide kinase reaction buffer (70 mM Tris-HCl pH7.5; 10 mM MgCl2; 5 mM DTT) were obtained from New England Biolabs.
Final reaction mixture contains: 0.5 μl of M13 single stranded DNA (250 μg/ml); 1.0 μl of 10×PHK buffer; 0.25 μl of RecA (2 mg/ml); 0.25 μl of 1 mM ATP; 0.25 μl of test compound in DMSO; and 12.0 μl of H2O.
Test compounds are incubated at room temperature in the presence of RecA protein and DNA prior to addition of ATP. This can be achieved by the preparation of two mixes, as indicated below. Desirably, both a no-DNA and a DNA/DMSO-only (i.e., no test compound) control were included.
The following steps are then performed: (1) Add 7.75 μl of mix 1 to the well of a 384 well plate; (2) Add 0.5 μl of the compound of interest; (3) Incubate at room temperature for 5 minutes; (4) Add 2.5 μl of the ATP mix. Incubate at room temperature for 30 minutes; (5) Add 12.5 μl of Promega Kinase glo plus; (6) Incubate at room temp for 10 minutes or more; and (7) Measure luminescence of the reaction.
Tested compounds were obtained from Boston University (1205 compounds from CMLD diversity library, available from Dr. Scott Schauss), IndoFine (66 compounds based on flavone structure), ChemdiV (48 compounds known to be ATPase inhibitors and 720 compounds structurally related to CB101 (described, for example, in U.S. Ser. No. 60/662,038), and Asinex. Five (5) tested compounds were bisflavones and 28 were predicted, based on structural modeling (see, for example, Example 20) to dock with Rec A. Many of the compounds are lipophilic, natural-product-like compounds. Others are flavones, bisflavones, flavonoids, coumarins, and/or heterocyclic compounds.
Percent inhibition is calculated according to the following equation:
[formula] A value of “−1” indicates higher than 50 μg/ml, therefore undetermined

S. aureus cells = assay: Mutation/resistance assay (resistance to ciprofloxacin); type: cell-based
Protocol: This assay measures the rate at which mutant cells arise in the presence of an antibiotic agent. Cells are grown in the presence of antibiotic agent at a concentration above (generally well above, e.g., 4× or 8×) its MIC, and further in the presence or absence of a test agent (that may inhibit or enhance mutation).
Every 24 hours, an aliquot is removed from the culture and is diluted so that the antibiotic agent is no longer present at a concentration above its MIC (e.g., so that the antibiotic agent is present at 0.5×MIC or less). These aliquoted samples are then assayed to determine whether they can grow in the presence of the antibiotic agent. Specifically, when growth is observed in the presence of antibiotic agent at a concentration that is 4×MIC, then resistance is said to have developed. Test compounds can therefore be assayed to assess whether or not they can reduce the incidence of resistance (e.g., by inhibiting mutation).
These aliquoted samples were then assayed to determine whether they can grow in the presence of ciprofloxacin. […]

[1] = tested on: S. aureus strain S3 (ISP 794); assay: Cell-based survival assay, S. aureus strain S3 (RecA+); conditions: 1 μg/ml ciprofloxacin + 25 μg/ml hinokiflavone, 16 hour time point

T1 sequence (P0A7G6 2-353): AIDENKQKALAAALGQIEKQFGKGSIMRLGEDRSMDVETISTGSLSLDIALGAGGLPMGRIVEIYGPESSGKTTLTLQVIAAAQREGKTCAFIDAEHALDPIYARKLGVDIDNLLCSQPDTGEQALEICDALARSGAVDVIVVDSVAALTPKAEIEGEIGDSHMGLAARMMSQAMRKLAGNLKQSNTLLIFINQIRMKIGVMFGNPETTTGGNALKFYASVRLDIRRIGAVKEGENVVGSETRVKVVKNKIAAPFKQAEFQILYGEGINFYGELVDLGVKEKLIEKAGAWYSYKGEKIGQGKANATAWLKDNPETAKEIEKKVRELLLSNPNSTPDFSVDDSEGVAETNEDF

With O=c1c(O)c(-c2ccc(O)cc2)oc2cc(O)ccc12 [3,7,4′-trihydroxyflavone] the “activity in RecA ATPase screen” value (E. coli RecA protein) was “particularly active”.
With O=c1cc(-c2ccc(O)cc2)oc2cc(O)c(O)c(O)c12 [6-hydroxy-apigenin] the “activity in RecA ATPase screen” value (E. coli RecA protein) was “particularly active”.
For O=c1cc(-c2ccc(O)cc2)oc2cc(O[C@@H]3O[C@H](CO)[C@@H](O)[C@H](O)[C@H]3O)cc(O)c12 [apigenin-7-O-glucoside], the “activity in RecA ATPase screen” value (E. coli RecA protein) was “particularly active”.
In the case of O=c1cc(-c2ccc(O)cc2)oc2cc(O)cc(O)c12 [apigenin], the “activity in RecA ATPase screen” value (E. coli RecA protein) is reported as “particularly active”.
With O=C(O)c1cn(C2CC2)c2cc(N3CCNCC3)c(F)cc2c1=O [ciprofloxacin, reference compound] the “Number of Wells in which Growth Observed in Presence of Ciprofloxacin at 4 × MIC” value (from here on “Number of Wells in which Growth Observed”) (S. aureus cells; culture grown 0 days in 4×MIC ciprofloxacin, −Hinokiflavone) was 0, the “Number of Wells in which Growth Observed” value (S. aureus cells; culture grown 1 day in 4×MIC ciprofloxacin, −Hinokiflavone) was 1 and the “Number of Wells in which Growth Observed” value (S. aureus cells; culture grown 5 days in 4×MIC ciprofloxacin, −Hinokiflavone) was 2. The “Number of Wells in which Growth Observed” value (S. aureus cells; culture grown 6 days in 4×MIC ciprofloxacin, −Hinokiflavone) was 2, the “Number of Wells in which Growth Observed” value (S. aureus cells; culture grown 7 days in 4×MIC ciprofloxacin, −Hinokiflavone) was 3 and the “Number of Wells in which Growth Observed” value (S. aureus cells; culture grown 10 days in 4×MIC ciprofloxacin, −Hinokiflavone) was 11.
With O=c1c(O)c(-c2ccc(O)c(O)c2)oc2cc(O)ccc12 [fisetin] the “activity in RecA ATPase screen” value (E. coli RecA protein) was “particularly active”.
For O=c1cc(-c2ccc(Oc3c(O)cc4oc(-c5ccc(O)cc5)cc(=O)c4c3O)cc2)oc2cc(O)cc(O)c12 [hinokiflavone], the “Number of Wells in which Growth Observed” value (S. aureus cells; culture grown 0 days in 4×MIC ciprofloxacin, +Hinokiflavone (25 μg/ml)) was 0, the “Number of Wells in which Growth Observed” value (S. aureus cells; culture grown 1 day in 4×MIC ciprofloxacin, +Hinokiflavone (25 μg/ml)) was 0 and the “Number of Wells in which Growth Observed” value (S. aureus cells; culture grown 5 days in 4×MIC ciprofloxacin, +Hinokiflavone (25 μg/ml)) was 0. The “Number of Wells in which Growth Observed” value (S. aureus cells; culture grown 6 days in 4×MIC ciprofloxacin, +Hinokiflavone (25 μg/ml)) was 0, the “Number of Wells in which Growth Observed” value (S. aureus cells; culture grown 7 days in 4×MIC ciprofloxacin, +Hinokiflavone (25 μg/ml)) was 3 and the “Number of Wells in which Growth Observed” value (S. aureus cells; culture grown 10 days in 4×MIC ciprofloxacin, +Hinokiflavone (25 μg/ml)) was 4. For the same molecule, the “fewer CFUs in presence of hinokiflavone as compared with its absence” value [1] was “approximately 100 fold”.
With COc1cc(-c2oc3cc(O)cc(O)c3c(=O)c2O)ccc1O [isorhamnetin] the “activity in RecA ATPase screen” value (E. coli RecA protein) was “particularly active”.
For O=c1c(O)c(-c2ccc(O)cc2)oc2cc(O)cc(O)c12 [kaempferol], the “activity in RecA ATPase screen” value (E. coli RecA protein) was “particularly active”.
For O=C(c1ccc(O)c(O)c1)c1c(O)cc(O)cc1O [maclurin], the “activity in RecA ATPase screen” value (E. coli RecA protein) was “particularly active”.
With O=c1c(O)c(-c2ccc(O)cc2O)oc2cc(O)cc(O)c12 [morin] the “activity in RecA ATPase screen” value (E. coli RecA protein) was “particularly active”.
With O=c1c(O)c(-c2ccc(O)c(O)c2)oc2cc(O)c(O)c(O)c12 [quercetagetin] the “activity in RecA ATPase screen” value (E. coli RecA protein) was “particularly active”.
For O.O.O=c1c(O)c(-c2ccc(O)c(O)c2)oc2cc(O)cc(O)c12 [quercetin dihydrate], the “activity in RecA ATPase screen” value (E. coli RecA protein) was “particularly active”.
With O=c1c(O)cc([C@H]2Oc3cc(O)cc(O)c3C[C@H]2O)cc2c([C@H]3Oc4cc(O)cc(O)c4C[C@H]3O)cc(O)c(O)c12 [theaflavin] the “activity in RecA ATPase screen” value (E. coli RecA protein) was “particularly active”.
